In patent US10934244B2, “Compounds for use in treating neuromuscular disorders” (NMD PHARMA A/S, priority 2015, dated 2021):

Assays:
[1] = system: isolated rat soleus muscles; assay: Recovery of nerve-stimulated force in isolated rat soleus muscles exposed to sub-maximal tubocurarine; assay type: cell-based
Experimental: (§1) Experiments were performed using rat soleus muscles from either young (4-wk-old) or adult Wistar rats (12-14-week-old). Animal handling, killing and isolation of muscle is described elsewhere^26 All experiments were performed using normal Krebs-Ringer bicarbonate solution^26 (NKR). In solutions with elevated Mg^2+, MgCl2 was added to NKR-solution causing minor increases in osmolarity and ionic strength. In solutions with elevated K^+, 4 mM NaCl was replaced by 4 mM KCl in the NKR.
(§2) In all contraction experiments, isometric force production was determined and force produced during contractions was quantified by measuring the integral of the force response (AUC). Stimulation and force recordings have been described elsewhere^26. […] In these latter experiments, extracellular recordings of action potentials (M-waves) could be measured without temporal overlap with stimulation artefacts.
To initially confirm that inhibition of ClC-1 ion channels can be used to recover contractile force in muscle with reduced neuromuscular transmission, isolated nerve-muscle preparations were first exposed to either tubocurarine (FIG. 2A) or elevated Mg^2+ (FIG. 2B) and then a specific ClC-1 inhibitor (9-AC) was added. […]

[2] = system: isolated rat soleus muscles; assay: Recovery of nerve-stimulated force in isolated rat soleus muscles at elevated extracellular Mg2+ (3.5 mM); assay type: cell-based; settings: muscle at elevated Mg2+ (3.5 mM); FIG. 2B
Experimental: as §1
as §2, with “artefacts. […]” for “artefacts.”
The next series of experiments determined whether the compounds that recovered nerve-stimulated force in the presence of tubocurarine could also recover nerve-stimulated force at elevated extracellular Mg^2+.

[3] = system: soleus muscles; assay: Mg2+ concentration required to depress nerve-stimulated force by 50% (Kd,Mg2+), combination treatments; assay type: cell-based, rat; settings: C8 combined with 3,4-diaminopyridine
Experimental: FIG. 6. […] Muscles from 4-week-old rats were stimulated to contract by activating the motor nerve with short duration pulses in field stimulation. Muscles contracted every 10 min for 2 s in response to 30 Hz stimulation. Four different experimental conditions were used. […] C) similar to A) but this muscle had been pre-incubated with 3,4-AP. […] The force integral (AUC) was determined at each extracellular Mg^2+ concentration. AUC was plotted against Mg^2+ concentration and the data was fitted to a sigmoidal function (FIG. 6E). This provided the extracellular Mg^2+ concentration that was required to reduce the nerve-stimulated force to 50% (Mg50) under the four different conditions (see Table 5).
While the use of tubocurarine mimics conditions with reduced neuromuscular transmission due to post-synaptic dysfunction (myasthenia gravis, neuromuscular blockade), the experiments with elevated extracellular Mg^2+ mimics conditions with pre-synaptic dysfunction akin to a range of neuromuscular disorders including Lambert Eaton syndrome^26, motor neuron disorders^6-9 and polyneuropathy^18, 19. […] Based on this it was determined whether recovery of nerve-stimulated force at elevated extracellular Mg^2+ with ClC-1 inhibiting compounds could be added to force recovery with 3,4-AP. […] To quantify the effect of compounds on Mg^2+ sensitivity the force at the different Mg^2+ concentrations was determined. […]

[4] = system: rat soleus muscles; assay type: cell-based; settings: 10 and 25 μM, compared to control conditions; 1 μM μ-conotoxin GiiiB
[5] = system: isolated human muscles; assay type: cell-based; settings: 150 μM C8; elevated K+ and TTX
[6] = Pharmacokinetic analysis of a single I.P. dose in rats; assay type: in vivo; settings: rat, ip, single I.P. dose 10 mg/kg, Sprague-Dawley rats, plasma
Experimental: This part of the study was performed by Pipeline Biotech A/S (Spørring, Denmark). […] Plasma concentrations (free and bound) were determined by OnTarget Chemistry (Uppsala, Sweden, Project No.: PB243-001).
Before conducting in vivo experiments with animal models of myasthenia gravis, some pharmacokinetic details were obtained for C8 in response to one-bolus I.P. injection.

[7] = system: rats injected with tubocurarine; assay: Rotarod running performance of rats after I.P. tubocurarine (myasthenia like phenotype); assay type: in vivo, rat; settings: C8 20 mg/kg I.P. 2 hrs before tubocurarine 0.13 mg/kg I.P.; tested 21 minutes after tubocurarine; sham around 2%
Experimental: FIG. 9. […] A) illustrates the design of the experiments. Prior to Day One the animals had been familiarized to the rotarod in three training sessions distributed over two days.
(§3) In both series of experiments, running performance was tested on a rotarod using a protocol where the rod was accelerated gradually over a 5 min period, and the running time and covered distance before falling off the rod were measured.
Experiments with tubocurarine were carried out over two days, and on each day the effect of tubocurarine on running performance was tested. On the first day only tubocurarine was injected. […] On the second day, the animals were first allowed to run on the rotarod, and all animals performed normally. […] The allocation of the animals into the two groups (C8 or sham) was random and unknown to the experimenter (blinded experimental design).
In the first series of in vivo experiments, myasthenia gravis was simply mimicked by I.P. injection of tubocurarine (0.13 mg/kg) in animals that had been familiarized to running on the rotarod. On the first of two consecutive days, tubocurarine was injected I.P. and the running performance of the animal was tested 21 minutes after this injection. On the second day of experimentation, the animals first performed a test run to ensure that they were no longer affected by the tubocurarine injected the day before. […]

[8] = system: rats injected with MAB35 monoclonal antibody; assay: Rotarod running performance in passive immunization model of myasthenia gravis (MAB35); assay type: in vivo, rat; settings: compared to sham
Experimental: FIG. 10. […] Prior to I.P. injection of MAB35 the animals had been familiarized to the rotarod over three training sessions distributed over two days. […] After this treatment performance was monitored every second hour. *Indicates significant different as evaluated using student t-test.
as §3
In experiments with MAB35, animals were first familiarized with the rotarod over two consecutive days and then injected I.P. with MAB35. After injection, rotarod performance was then again monitored regularly over the consecutive two days. […] A considerable number of animals, however, became moribund failing to walk and they had altered ventilation (rapid) and pronounced ptosis. These animals were not included in experiments.
In the last series of experiments, myasthenia gravis was mimicked in rats by inducing an immunological reaction against the motor endplate of muscle fibers using monoclonal antibody against the nicotinic ACh receptor in muscle fibers. Again the animals had been familiarized to the rotarod before the MAB35 injection. […] From FIG. 10 it can be seen that upon injection sham treatment the performance further declined.

Row | SMILES | recovery of force and M-wave signal ([1]; muscle exposed to tubocurarine, FIG. 2A) | recovery of force and M-wave signal [2] | nerve-stimulated force after addition of compound (in words) ([1]; 50 μM added after 40 min in tubocurarine, FIG. 3A) | effect of combination on recovery of neuromuscular transmission [3] | EPP amplitude [4] | contractile force [5] | AUC(0-t) [6] [µg·h/mL] | C0 [6] [ng/mL] | Cmax [6] [ng/mL] | AUC(0-inf) ([6]; read-out: AUC 0-inf_obs) [µg·h/mL] | half-life ([6]; read-out: t½ (converted)) [h] | increase in running distance on second day compared to first day [7] | rotarod running performance after injection ([8]; 20 mg/kg C8 I.P.) | rotarod running performance after injection ([8]; 30 mg/kg C8 I.P.)
1 | O=C(O)c1c2ccccc2cc2ccccc12 [Compound 9-AC, reference compound] | marked recovery of both force and M-wave signal | marked recovery of both force and M-wave signal |  |  |  |  |  |  |  |  |  |  |  | 
2 | C[C@H](Oc1ccc(Br)cc1)C(=O)O [Compound C8, (2S)-2-(4-bromophenoxy)propanoic acid] |  |  | recovered markedly | unexpected synergistic effect | significantly larger EPPs | markedly recovery | 204 | 24500 | 44600 | 205 | 3.7 | around 150% | decline was reduced | clear recovery of performance
